Measurements as given in US5750536A, “Tropyl 7-azaindol-3-ylcarboxyamides as antitussive agent” (priority 1993, dated 1998).
Entries after “also recorded” stand apart in the source; their conditions may differ. Read-outs that look alike come from different tables or passages of the source.

Assays:
α2 = test: Displacement of selective ligand from α2 receptor; assay type: binding; details: 10^-5 M; 10 µM
Text: (§1) The interaction of Compounds A and B with other receptors (α1, α2, benzodiazepine (o bzd), GABA A, δ) in comparison to the typical 5-HT3 antagonist Ondastron and BRL 24682 has been studied and for each case the displacement % of the single selective ligand from the corresponding receptor at concentration 10^-5 M of the compounds under examination, has been evaluated.

[1] = system: coughing stimulus by capsaicin; test: Inhibition of cough induced by inhalation of capsaicin; assay type: in vivo, guinea pigs; details: for ED50: Cavia porcellus, po, read-out: ID50 coughing stimulus capsaicin; for % inhibition of the coughing stimulus by capsaicin: guinea pigs, single dose 100 mg/kg
Experimental: (§2) Besides these differences "in vitro" on the receptor behaviour great differences has been evidenced "in vivo" in the tussive stimulus inhibition provoked by inhalation of irritant citric acid as well as capsaicine aqueous solutions.
(§3) The compounds have been tested in guinea pigs in comparison to codeine, used as standard compound, at the single dose of 100 mg/kg according to the technique of Charlier et al., (Arch. Int. Pharmacodyn., 134, 306, 1961) which has been slightly modified.
(§4) The percent reduction evaluated in the number of short coughs after administration of the compound under examination taken in comparison to the number of short coughs observed in each of the animals to which the compound was administered, have been noted.
(§5) For these compounds as well as for the most interesting reference compounds the dose inhibiting 50% of the short coughs (ID50) induced either by citric acid or capsaicine has been determined.

[2] = system: coughing stimulus by ac. citric; test: Inhibition of cough induced by inhalation of citric acid; assay type: in vivo, guinea pigs; details: for ED50: Cavia porcellus, po, read-out: ID50 coughing stimulus ac. citric; for % inhibition of the coughing stimulus by ac. citric: guinea pigs, single dose 100 mg/kg
Experimental: as §2, §3, §4, §5

GABA A = test: Displacement of selective ligand from GABA A receptor; assay type: binding; details: for Dispacement percentage Gaba A: 10^-5 M, 10 µM
σ = test: Displacement of selective ligand from σ receptor (δ in text); assay type: binding; details: 10^-5 M; 10 µM
[3] = system: extra vasation by capsaicine; test: Protection from capsaicine extravasation (Evans bleu); assay type: in vivo
Text: It is assumed that Capsaicine releases substance P from the peripheral nerve endings of the sensitive fibers C and determines the necrosis of the same. It is known that capsaicine administration provokes the formation of an exudate (extra vasation by capsaicine) which can be evaluated by concomitant Evans bleu administration.

α1 = test: Displacement of selective ligand from α1 receptor; assay type: binding; details: 10^-5 M; 10 µM
Text: as §1

5-HT1 = test: Binding test 5-HT1; details: at 3.6 10^-5 M
Text: Compounds A and Compounds B of the present invention, which are examples of endo-tropyl and quinuclidylamide of 7-azaindolyl-3-carboxylic acid respectively have been studied "in vitro" for their interaction with the 5-HT1, 5-HT2 and 5-HT3 receptors.
Binding Test: 5-HT1 5-HT2
% of inhibition at 3.6 10^-5 M

[4] = system: sleeping time induced by barbiturates; test: Increase of sleeping time induced by barbiturates; assay type: in vivo, mice; details: for sleeping time increase: mice, barbiturate-induced sleep
Text: For each of the compounds under examination it has been also tested the effect on the increase of the sleeping time induced by barbiturates. […]

[5] = system: cough induced by capsaicine; test: Antitussive effect, capsaicine aqueous solution as irritant (Table V); assay type: in vivo, mice; details: os; for short coughs average n° ± s.e. / short coughs inhib. %: single dose 100 mg/kg, mice
Experimental: (§6) Further compound A (N-endo-8-methyl-8-azabicyclo [3,2,1] oct-3-yl)-7-azaindolyl-3-carboxamide has been tested for its antitussive effect in comparison to the closest compound belonging to the class of compounds of Japanese Kokai Tokkyo Koho JP 04 21 681, i.e., 8-methyl-8-azabicyclo [3,2,1] oct-3-yl)-1-methyl-7-azaindolyl-3-carboxamide. The compounds were administered by os at a single dose of 100 mg/kg on mice using as irritant agent capsaicine aqueous solution according to the previous mentioned technique.
as §6, with “.vertline.3,2,1.vertline.” for “[3,2,1]”, “antitussiv” for “antitussive”, “Jpn.” for “Japanese”, “i.e. 8-methyl-8-azabicliclo .vertline.3,2,1.vertline.” for “i.e., 8-methyl-8-azabicyclo [3,2,1]”

5-HT3 = target: T1, 5-HT3 (Homo sapiens, UniProt P46098); test: Binding test 5-HT3
T1 sequence (P46098 24-478): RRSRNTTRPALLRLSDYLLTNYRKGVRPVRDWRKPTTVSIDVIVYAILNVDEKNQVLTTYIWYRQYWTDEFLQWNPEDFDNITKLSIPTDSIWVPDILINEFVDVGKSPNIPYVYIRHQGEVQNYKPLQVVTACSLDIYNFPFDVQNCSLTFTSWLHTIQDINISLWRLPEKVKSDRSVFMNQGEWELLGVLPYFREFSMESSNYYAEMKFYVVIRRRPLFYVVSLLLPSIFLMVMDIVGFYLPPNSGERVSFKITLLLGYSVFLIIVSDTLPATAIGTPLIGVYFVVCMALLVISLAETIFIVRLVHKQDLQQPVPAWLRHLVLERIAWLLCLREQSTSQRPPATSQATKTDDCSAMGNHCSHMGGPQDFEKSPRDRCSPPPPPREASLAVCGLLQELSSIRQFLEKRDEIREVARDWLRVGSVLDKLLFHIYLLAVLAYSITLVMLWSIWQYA

5-HT2 = test: Binding test 5-HT2; details: at 3.6 10^-5 M
Acute oral toxicity = details: mouse, in vivo, mice
Experimental: The compounds of the invention may be administered by oral, sublingual, endovenous, subcutaneous, intramuscular, rectal route and by inhalation. The preferred doses vary from about 0.05 to about 15 mg/kg/die, depending on the conditions, weight, age of the patient and on the administration route. Higher dosages of the compounds of the invention, even for a prolonged period of time, have no contraindication because of their very low toxicity.

[6] = system: coughing stimulus by capsaicin; test: Inhibition of cough induced by inhalation of capsaicin; assay type: in vivo; details: guinea pigs
[7] = system: coughing stimulus by 2N H2 SO4; test: Inhibition of cough induced by 2N H2SO4; assay type: in vivo, guinea pigs; details: Cavia porcellus, po, read-out: ID50 coughing stimulus 2N H2 SO4
[8] = system: benzodiazepine (bdz) receptor; test: Displacement of selective ligand from benzodiazepine receptor; assay type: binding
Text: as §1

## Cc1nccn1CC1CCc2c(c3ccccc3n2C)C1=O (racemic) [Ondasetron, reference compound]
α2
  Dispacement percentage α2: 30%
[1]; os, 95% confidence
  ED50: 97 mg/kg
[1]
  % inhibition of the coughing stimulus by capsaicin: 50.5%
[2]; os, 95% confidence
  ED50: 209 mg/kg
[2]
  % inhibition of the coughing stimulus by ac. citric: 30.5%
GABA A
  interaction towards GABA A receptor (in words): aspecific
  Dispacement percentage Gaba A: 38%
σ
  Dispacement percentage σ: 45%
[3]; 10 mg/kg i.p.
  protection from capsaicine extravasation (in words): Solely Compound A and not Ondasetron has been found to give a 42% protection
α1
  Dispacement percentage α1: 72%
5-HT1
  % of inhibition 5-HT1: 7.6%
[4]; at the dose of 10 mg/kg
  sleeping time increase: -8

## CN1C2CCC1CC(NC(=O)c1cn(C)c3ncccc13)C2 (stereo not shown) [8-methyl-8-azabicyclo [3,2,1] oct-3-yl)-1-methyl-7-azaindolyl-3-carboxamide, reference compound]
[5]
  short coughs average n° ± s.e.: 6.5 ± 0.7
  short coughs inhib. %: 6%

## CN1[C@@H]2CC[C@H]1C[C@@H](NC(=O)c1c[nH]c3ncccc13)C2 [Compound A, N-(endo-8-methyl-8-azabicyclo[3.2.1]oct-3-yl)-7-azaindolyl-3-carboxamide]
[1]
  ED50: 51 mg/kg
  % inhibition of the coughing stimulus by capsaicin: 76.30%
[1]; guinea pig, in vivo
  antitussive effect, capsaicin (in words): depends on the dose administered; also recorded: at least equiactive as codeine
[2]
  ED50: 57 mg/kg
  % inhibition of the coughing stimulus by ac. citric: 61.7%
[2]; guinea pig, in vivo
  antitussive effect, citric acid (in words): depends on the dose administered; also recorded: at least equiactive as codeine
GABA A
  interaction towards GABA A receptor (in words): unusual ability of a double interaction, apparently selective, towards GABA A and δ receptors
  Dispacement percentage Gaba A: 83%
σ
  Dispacement percentage σ: 70%
[5]; 100 mg/kg
  antitussive effect, Table V (in words): effective as an antitussive compound; also recorded: effectiveness of compound A as antitussive compound
[5]
  short coughs average n° ± s.e.: 1.8 ± 0.5
  short coughs inhib. %: 75%
[3]; 10 mg/kg intraperitoneal, vs non-treated animals
  protection from capsaicine extravasation: 42%
5-HT3
  IC50: 3000 nM
  interaction with 5-HT3 receptors (in words): very weak interaction with 5-HT3 receptors
5-HT3; vs Compound B
  interaction with 5-HT3 receptors relative to Compound B (in words): logarithmically lower than that of Compound B
5-HT3; vs Ondasetron
  interaction with 5-HT3 receptors relative to Ondasetron (times lower): 1,000 times
α1
  Dispacement percentage α1: 13%
5-HT1
  % of inhibition 5-HT1: 0.0%
5-HT2
  % of inhibition 5-HT2: 8.6%
[4]; oral, single dose 100 mg/kg
  sleeping time increase: -28.9
[4]; mouse, in vivo
  increase of the sleeping time induced by barbiturates (in words): does not show any increase of the sleeping time induced by barbiturates
Acute oral toxicity
  LD50: 1000 mg/kg

## COc1ccccc1CN[C@H]1C2CCN(CC2)[C@H]1C(c1ccccc1)c1ccccc1 (relative stereo) [CP 96 345]
[6]; 10 mg/kg intraperitoneal
  short cough inhibition, capsaicin: 26%
[6]; 40 mg/kg intraperitoneal
  short cough inhibition, capsaicin: 42%

## OC[C@@H](O)CN1CCN(c2ccccc2)CC1 [Levodropropyzina]
[1]; os, 95% confidence
  ED50: 145 mg/kg
[2]; os, 95% confidence
  ED50: 151 mg/kg
[7]; os, 95% confidence
  ED50: 265 mg/kg

## O=C(NC1CN2CCC1CC2)c1c[nH]c2ncccc12 (stereo not shown) [Compound B, N-(1-azabicyclo[2.2.2]oct-3-yl)-7-azaindolyl-3-carboxamide]
[1]
  % inhibition of the coughing stimulus by capsaicin: 21.0%
[2]
  % inhibition of the coughing stimulus by ac. citric: 46.0%
GABA A
  interaction towards GABA A receptor (in words): definitely weak or absent
  Dispacement percentage Gaba A: 6.7%
σ
  Dispacement percentage σ: 26%
5-HT3
  IC50: 300 nM
α1
  Dispacement percentage α1: 7%
5-HT1
  % of inhibition 5-HT1: 37.0%
5-HT2
  % of inhibition 5-HT2: 3.9%
[4]; oral, single dose 100 mg/kg
  sleeping time increase: -7

## COc1ccc2c3c1O[C@H]1[C@@H](O)C=C[C@H]4[C@@H](C2)N(C)CC[C@@]341 [Codeine, reference compound]
[1]
  ED50: 74 mg/kg
  % inhibition of the coughing stimulus by capsaicin: 58.4%
[2]
  ED50: 65 mg/kg
  % inhibition of the coughing stimulus by ac. citric: 63.2%
[4]; oral, single dose 100 mg/kg
  sleeping time increase: +106.4
[7]
  ED50: 102 mg/kg

## COc1cc(N)c(Cl)cc1C(=O)N[C@H]1C[C@H]2CC[C@@H](C1)N2C [BRL 24682, N-(endo-8-methyl-8-azabicyclo-[3.2.1]oct-3-yl)-2-methoxy-4-amino-5-chlorobenzamide, reference compound]
α2
  Dispacement percentage α2: 16%
[2]
  % inhibition of the coughing stimulus by ac. citric: 44.1%
GABA A
  interaction towards GABA A receptor (in words): high interaction with the benzodiazepine and GABA A receptors
  Dispacement percentage Gaba A: 89%
σ
  Dispacement percentage σ: 0%
[8]
  interaction with benzodiazepine receptor (in words): high interaction with the benzodiazepine and GABA A receptors
[8]; 10^-5 M, 10 µM
  Dispacement percentage bdz: 98%
α1
  Dispacement percentage α1: 28%
[4]; oral, single dose 100 mg/kg
  sleeping time increase: +34.8
